Laboratory results as given in US10259810B2, “N-sulfonylated pyrazolo[3,4-b]pyridin-6-carboxamides and method of use” (AbbVie S.à.r.l., priority 2015, dated 2019).

Key:
Format in all cases: cell-based
[1] = biological target: T1, ΔF508-CFTR (Homo sapiens, UniProt P13569, DEL508-508); assay: CFTR cell surface levels using HRP-tagged ΔF508-CFTR expressing CFBE cells, in the presence of a co-corrector; details: HRP-tagged ΔF508-CFTR CFBE cells, in the presence of 3 μM co-corrector; for EC50: read-out: EC50
T1 construct: host or cells: CFBE41o-, doxycycline-inducible
T1 sequence (P13569 with tags, fused parts or gaps DEL508-508): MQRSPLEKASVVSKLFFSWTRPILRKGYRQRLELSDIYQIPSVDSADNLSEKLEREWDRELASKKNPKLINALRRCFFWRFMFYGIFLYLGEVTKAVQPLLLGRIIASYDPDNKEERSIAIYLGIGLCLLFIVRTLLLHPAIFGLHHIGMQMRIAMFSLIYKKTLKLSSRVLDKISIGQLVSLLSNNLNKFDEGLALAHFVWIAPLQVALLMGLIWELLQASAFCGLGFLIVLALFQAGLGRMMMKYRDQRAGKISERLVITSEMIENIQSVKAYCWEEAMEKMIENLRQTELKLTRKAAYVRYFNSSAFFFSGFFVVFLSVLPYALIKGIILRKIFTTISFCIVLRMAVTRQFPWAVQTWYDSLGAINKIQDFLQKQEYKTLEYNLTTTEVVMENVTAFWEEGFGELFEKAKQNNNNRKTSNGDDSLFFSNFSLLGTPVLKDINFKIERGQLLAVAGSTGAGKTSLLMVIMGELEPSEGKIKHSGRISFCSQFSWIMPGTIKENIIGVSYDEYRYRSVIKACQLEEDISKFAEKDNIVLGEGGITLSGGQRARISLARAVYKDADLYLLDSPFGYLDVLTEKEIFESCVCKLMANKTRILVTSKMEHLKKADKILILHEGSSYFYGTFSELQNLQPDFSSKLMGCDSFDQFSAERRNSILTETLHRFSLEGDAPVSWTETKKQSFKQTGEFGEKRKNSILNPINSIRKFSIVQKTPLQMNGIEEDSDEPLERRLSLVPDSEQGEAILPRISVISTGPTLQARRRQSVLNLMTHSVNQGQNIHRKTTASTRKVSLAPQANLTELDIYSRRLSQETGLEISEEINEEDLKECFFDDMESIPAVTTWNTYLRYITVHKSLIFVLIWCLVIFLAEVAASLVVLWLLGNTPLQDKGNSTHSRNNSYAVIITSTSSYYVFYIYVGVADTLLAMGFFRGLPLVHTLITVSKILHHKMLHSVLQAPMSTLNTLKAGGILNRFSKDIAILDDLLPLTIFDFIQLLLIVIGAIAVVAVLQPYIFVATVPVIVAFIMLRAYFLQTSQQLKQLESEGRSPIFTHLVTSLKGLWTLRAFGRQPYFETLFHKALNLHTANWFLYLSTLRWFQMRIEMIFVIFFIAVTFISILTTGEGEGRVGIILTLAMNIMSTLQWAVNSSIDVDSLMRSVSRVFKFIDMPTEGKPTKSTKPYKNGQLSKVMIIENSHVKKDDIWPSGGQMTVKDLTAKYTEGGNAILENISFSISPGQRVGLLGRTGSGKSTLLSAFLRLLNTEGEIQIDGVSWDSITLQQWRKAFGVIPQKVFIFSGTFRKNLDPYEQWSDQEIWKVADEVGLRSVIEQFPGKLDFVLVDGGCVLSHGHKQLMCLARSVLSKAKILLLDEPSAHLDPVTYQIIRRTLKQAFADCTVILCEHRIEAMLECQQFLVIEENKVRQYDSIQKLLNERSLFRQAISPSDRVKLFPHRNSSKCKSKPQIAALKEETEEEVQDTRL
How it was run: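 Chemiluminescent read-out of surface HRP (15 min, dark) after PBS washes. Activity is normalized as 100×(sample−DMSO)/(3 μM co-corrector alone−DMSO).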

[2] = biological target: T1, ΔF508-CFTR; assay: CFTR cell surface levels using HRP-tagged ΔF508-CFTR expressing CFBE cells, intrinsic corrector capacity; set-up: % Activation: concentration or dose not given beside the values; details: HRP-tagged ΔF508-CFTR expressing CFBE41o- cells, compound alone (intrinsic corrector capacity), 20 hours at 33° C.; for EC50: read-out: EC50
How it was run: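 Surface ΔF508-CFTR was measured as HRP chemiluminescence from an extracellular-loop-4 tag, expressed as percent activity between DMSO and a […] corrector control.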

[3] = biological target: T2, CFTR ΔF508 (Homo sapiens, UniProt P13569, DEL508-508); assay: Chronic TECC assay, primary bronchial epithelial cells of CF patients homozygous for CFTR ΔF508 (corrector, co-corrector and potentiator); details: chronic TECC, AUC = full area under the curve upon forskolin stimulation; for % Activity at 1 μM (AUC**): test compound at 1 μM; for % Activity at 3 μM (AUC**): test compound at 3 μM; for EC50: read-out: EC50 (nM) (AUC**)
T2 construct: bronchial epithelial cells isolated from CF patients homozygous for the CFTR ΔF508 mutation; McGill University; Asterand; University of North Carolina hAEC-CF; host or cells: primary human bronchial epithelial cells from CF patients homozygous for ΔF508, differentiated at air-liquid interface
T2 sequence (P13569 with tags, fused parts or gaps DEL508-508): as above
How it was run: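 Primary bronchial epithelial cells from ΔF508-homozygous CF patients on collagen IV-coated Transwells were chronically treated with test compound plus corrector and potentiator, which were re-added before recording. Ieq was derived from PD and Rt in NaCl-Ringer, pH 7.4, at 37° C, with apical amiloride and bilateral forskolin, recorded every 2 min over 20 min. Ieq increase was normalized to controls, and EC50 was taken from per-well concentrations.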

Row | SMILES | % Activation [1] [%] | EC50 [1] [nM] | % Activation [2] [%] | EC50 [2] [nM] | % Activity at 1 μM (AUC**) [3] [%] | % Activity at 3 μM (AUC**) [3] [%] | EC50 [3] [nM]
1 | CC(C)Oc1cc(-n2nc(C3CCC3)c3c(N4CCC(N5CCOCC5)CC4)cc(C(=O)NS(C)(=O)=O)nc32)ccn1 [Compound 530, 3-cyclobutyl-N-(methanesulfonyl)-4-[4-(morpholin-4-yl)piperidin-1-yl]-1-{2-[(propan-2-yl)oxy]pyridin-4-yl}-1H-pyrazolo[3,4-b]pyridine-6-carboxamide] | 464.6 | 23 | 323.1 | 54.4 | 326.6667 |  | 
2 | Cc1cc(N2CCN(c3cc(C(=O)NS(=O)(=O)N(C)C)nc4c3c(C3CCC3)nn4C3CCCCC3)CC2)ccn1 [Compound 535, 3-cyclobutyl-1-cyclohexyl-N-(dimethylsulfamoyl)-4-[4-(2-methylpyridin-4-yl)piperazin-1-yl]-1H-pyrazolo[3,4-b]pyridine-6-carboxamide] | 670.35 | 1250 | 385.8 | 389 | 335.0294 |  | 
3 | O=C(NS(=O)(=O)N1CCC(F)C1)c1cc(N2CCC(N3CCOCC3)CC2)c2c(C3CCC3)nn(-c3ccc(F)cc3)c2n1 (stereo not shown) [Compound 537, 3-cyclobutyl-1-(4-fluorophenyl)-N-(3-fluoropyrrolidine-1-sulfonyl)-4-[4-(morpholin-4-yl)piperidin-1-yl]-1H-pyrazolo[3,4-b]pyridine-6-carboxamide] | 417.1 | 50.8 | 214.5 | 112 |  | 261.5724 | 
4 | CN(C)S(=O)(=O)NC(=O)c1cc(N2CCC(N3CCC(F)C3)CC2)c2c(C3CCC3)nn(-c3ccc(F)cc3)c2n1 (stereo not shown) [Compound 541, 3-cyclobutyl-N-(dimethylsulfamoyl)-1-(4-fluorophenyl)-4-[4-(3-fluoropyrrolidin-1-yl)piperidin-1-yl]-1H-pyrazolo[3,4-b]pyridine-6-carboxamide] | 457.2 | 115 | 231.7 | 444 | 320 |  | 
5 | CC(C)Oc1nn(C2CCCCC2)c2nc(C(=O)NS(=O)(=O)N(C)C)cc(-c3ccc(C(=O)N4CCC(N(C)C)CC4)cc3)c12 [Compound 546, 1-cyclohexyl-4-{4-[4-(dimethylamino)piperidine-1-carbonyl]phenyl}-N-(dimethylsulfamoyl)-3-[(propan-2-yl)oxy]-1H-pyrazolo[3,4-b]pyridine-6-carboxamide] | 335.3 | 182 | 138.05 | 325 |  | 282.0317 | 
6 | CN(C)S(=O)(=O)NC(=O)c1cc(N2CCC(N3CCN(C4CC4)CC3)CC2)c2c(C3CCC3)nn(-c3ccccc3)c2n1 [Compound 549, 3-cyclobutyl-4-[4-(4-cyclopropylpiperazin-1-yl)piperidin-1-yl]-N-(dimethylsulfamoyl)-1-phenyl-1H-pyrazolo[3,4-b]pyridine-6-carboxamide] | 476.35 | 180 | 276.9 | 233 | 373.3333 |  | 243
7 | CN1CCN(c2ccc(-c3cc(C(=O)NS(=O)(=O)N(C)C)nc4c3c(C3CCC3)nn4C3CCCCC3)cn2)CC1 [Compound 551, 3-cyclobutyl-1-cyclohexyl-N-(dimethylsulfamoyl)-4-[6-(4-methylpiperazin-1-yl)pyridin-3-yl]-1H-pyrazolo[3,4-b]pyridine-6-carboxamide] | 403.1 | 382 | 197.8 | 763 | 239.0643 |  | 
8 | O=C(NS(=O)(=O)N1CCOCC1)c1cc(N2CCC(N3CCN(C4CC4)CC3)CC2)c2c(C3CCC3)nn(-c3ccccc3)c2n1 [Compound 555, 3-cyclobutyl-4-[4-(4-cyclopropylpiperazin-1-yl)piperidin-1-yl]-N-(morpholine-4-sulfonyl)-1-phenyl-1H-pyrazolo[3,4-b]pyridine-6-carboxamide] | 432.55 | 104 | 235.5 | 359 | 296.6667 |  | 107
9 | CNS(=O)(=O)NC(=O)c1cc(N2CCC(N3CCN(C4CC4)CC3)CC2)c2c(C3CCC3)nn(-c3ccccc3)c2n1 [Compound 558, 3-cyclobutyl-4-[4-(4-cyclopropylpiperazin-1-yl)piperidin-1-yl]-N-(methylsulfamoyl)-1-phenyl-1H-pyrazolo[3,4-b]pyridine-6-carboxamide] | 571.35 | 106 | 399.1 | 532 | 221.9818 |  | 4.74
10 | CN(C)S(=O)(=O)NC(=O)c1cc(N2CCC(N3CCC(C#N)C3)CC2)c2c(C3CCC3)nn(-c3ccc(F)cc3)c2n1 (stereo not shown) [Compound 561, 4-[4-(3-cyanopyrrolidin-1-yl)piperidin-1-yl]-3-cyclobutyl-N-(dimethylsulfamoyl)-1-(4-fluorophenyl)-1H-pyrazolo[3,4-b]pyridine-6-carboxamide] | 509.4 | 43 | 311.6 | 107 | 620 |  | 
11 | CN(C)S(=O)(=O)NC(=O)c1cc(N2CCC(N3CCCC(C#N)C3)CC2)c2c(C3CCC3)nn(-c3ccc(F)cc3)c2n1 (stereo not shown) [Compound 562, 4-(3-cyano[1,4'-bipiperidin]-1'-yl)-3-cyclobutyl-N-(dimethylsulfamoyl)-1-(4-fluorophenyl)-1H-pyrazolo[3,4-b]pyridine-6-carboxamide] | 589.55 | 77.6 | 341.3 | 70.5 | 289.8854 |  | 
12 | COC1CN(C2CCN(c3cc(C(=O)NS(=O)(=O)N(C)C)nc4c3c(C3CCC3)nn4-c3ccc(F)cc3)CC2)C1 [Compound 570, 3-cyclobutyl-N-(dimethylsulfamoyl)-1-(4-fluorophenyl)-4-[4-(3-methoxyazetidin-1-yl)piperidin-1-yl]-1H-pyrazolo[3,4-b]pyridine-6-carboxamide] | 412.9 | 208 | 235.8 | 496 |  | 377.5594 | 
13 | CN(C)S(=O)(=O)NC(=O)c1cc(N2CCC(N3CCOCC3)CC2)c2c(C3CCC3)nn(-c3ccnc(OC(F)F)c3)c2n1 [Compound 575, 3-cyclobutyl-1-[2-(difluoromethoxy)pyridin-4-yl]-N-(dimethylsulfamoyl)-4-[4-(morpholin-4-yl)piperidin-1-yl]-1H-pyrazolo[3,4-b]pyridine-6-carboxamide] | 361.3 | 87.8 | 202.65 | 147 | 246.6667 |  | 
14 | O=C(NS(=O)(=O)N1CCC1)c1cc(N2CCC(N3CCOCC3)CC2)c2c(C3CCC3)nn(-c3ccc(F)cc3)c2n1 [Compound 576, N-(azetidine-1-sulfonyl)-3-cyclobutyl-1-(4-fluorophenyl)-4-[4-(morpholin-4-yl)piperidin-1-yl]-1H-pyrazolo[3,4-b]pyridine-6-carboxamide] | 443.5 | 54.7 | 257.15 | 139 |  | 225.798 | 
